Assay [1] deals with Sodium-dependent serotonin transporter (Homo sapiens, UniProt P31645).
In assay [2] the target is Sodium-dependent dopamine transporter (Homo sapiens, UniProt Q01959).
The target of assay [3] is Sodium-dependent noradrenaline transporter (Homo sapiens, UniProt P23975).
Sequence of Sodium-dependent noradrenaline transporter (P23975 whole entry): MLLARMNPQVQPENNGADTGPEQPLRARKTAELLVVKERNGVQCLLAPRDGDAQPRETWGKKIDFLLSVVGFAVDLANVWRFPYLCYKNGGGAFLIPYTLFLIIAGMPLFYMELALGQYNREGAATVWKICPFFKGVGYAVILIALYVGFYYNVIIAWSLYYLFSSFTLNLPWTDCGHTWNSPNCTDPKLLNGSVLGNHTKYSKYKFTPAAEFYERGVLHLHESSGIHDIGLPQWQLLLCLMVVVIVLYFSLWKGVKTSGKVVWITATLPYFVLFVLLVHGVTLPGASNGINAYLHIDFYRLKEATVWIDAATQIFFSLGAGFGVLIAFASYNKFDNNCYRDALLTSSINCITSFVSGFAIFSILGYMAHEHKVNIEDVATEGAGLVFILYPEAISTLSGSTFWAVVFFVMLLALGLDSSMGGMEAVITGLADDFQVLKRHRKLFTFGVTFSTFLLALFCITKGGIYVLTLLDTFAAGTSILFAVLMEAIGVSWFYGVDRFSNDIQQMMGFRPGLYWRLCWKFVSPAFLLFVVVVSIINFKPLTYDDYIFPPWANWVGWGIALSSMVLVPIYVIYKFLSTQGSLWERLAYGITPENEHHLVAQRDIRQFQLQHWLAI
Description: Displacement of [3H]nisoxetine from human NET

Sequence of Sodium-dependent dopamine transporter (Q01959 whole entry): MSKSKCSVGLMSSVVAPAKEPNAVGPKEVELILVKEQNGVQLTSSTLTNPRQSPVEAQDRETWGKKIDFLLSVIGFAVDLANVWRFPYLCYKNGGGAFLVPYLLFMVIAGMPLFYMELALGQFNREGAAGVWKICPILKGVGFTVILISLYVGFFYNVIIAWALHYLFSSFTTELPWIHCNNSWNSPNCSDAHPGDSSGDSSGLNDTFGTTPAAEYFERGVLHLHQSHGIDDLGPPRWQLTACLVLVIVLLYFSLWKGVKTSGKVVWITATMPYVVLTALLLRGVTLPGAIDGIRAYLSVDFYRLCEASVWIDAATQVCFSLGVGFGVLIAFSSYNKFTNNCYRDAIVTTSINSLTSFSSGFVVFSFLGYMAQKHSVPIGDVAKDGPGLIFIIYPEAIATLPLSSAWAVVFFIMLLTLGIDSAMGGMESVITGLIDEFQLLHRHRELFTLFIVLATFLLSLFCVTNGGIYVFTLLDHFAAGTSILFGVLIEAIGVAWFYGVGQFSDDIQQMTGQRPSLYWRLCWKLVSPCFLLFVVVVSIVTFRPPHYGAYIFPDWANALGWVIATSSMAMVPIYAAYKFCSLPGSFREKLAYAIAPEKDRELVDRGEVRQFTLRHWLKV
Sequence of Sodium-dependent serotonin transporter (P31645 whole entry): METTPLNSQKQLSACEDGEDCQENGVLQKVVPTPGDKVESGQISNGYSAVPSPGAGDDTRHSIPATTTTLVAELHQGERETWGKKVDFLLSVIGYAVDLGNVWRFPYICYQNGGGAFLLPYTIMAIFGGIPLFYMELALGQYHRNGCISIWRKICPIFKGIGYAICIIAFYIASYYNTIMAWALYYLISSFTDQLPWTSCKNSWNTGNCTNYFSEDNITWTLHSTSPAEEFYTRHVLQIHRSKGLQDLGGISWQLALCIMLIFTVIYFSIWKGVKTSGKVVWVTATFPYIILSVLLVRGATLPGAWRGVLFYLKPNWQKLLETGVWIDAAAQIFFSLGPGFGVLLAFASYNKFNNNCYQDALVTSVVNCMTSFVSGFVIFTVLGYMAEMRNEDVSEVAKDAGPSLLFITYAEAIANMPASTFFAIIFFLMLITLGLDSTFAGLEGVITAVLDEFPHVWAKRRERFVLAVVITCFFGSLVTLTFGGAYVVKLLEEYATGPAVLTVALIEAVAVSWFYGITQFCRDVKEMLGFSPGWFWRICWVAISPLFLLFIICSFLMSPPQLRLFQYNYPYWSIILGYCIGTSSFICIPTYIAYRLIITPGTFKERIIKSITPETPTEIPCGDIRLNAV

Take `COC(=O)[C@@H]1C2CCC(C[C@@H]1c1ccc(I)cc1)N2C/C=C/CF` (stereo partly drawn): the Ki in assay [1] is 2.2 nM; in assay [2], 0.5 nM.
With `COC(=O)[C@@H]1C2CCC(C[C@@H]1c1ccc(C)cc1)N2C/C=C/CF` (stereo partly drawn), the Ki was found to be 147 nM in assay [1], 2.7 nM in assay [2] and 265 nM in assay [3].
In assay [2], `COC(=O)[C@@H]1C2CCC(C[C@@H]1c1ccc(F)cc1)N2C/C=C/CF` (stereo partly drawn) displayed a Ki of 9.5 nM.
With `COC(=O)[C@@H]1C2CCC(C[C@@H]1c1ccc(Br)cc1)N2C/C=C/CF` (stereo partly drawn), the Ki in assay [1] worked out at 8.5 nM; in assay [3], 87 nM.

One may read the Ki as a dissociation constant, usually derived from enzyme kinetics or from competition with a known ligand.

Values taken from ChEMBL document CHEMBL1212822, “Synthesis, fluorine-18 radiolabeling, and biological evaluation of N-((E)-4-fluorobut-2-en-1-yl)-2beta-carbomethoxy-3beta-(4'-halophenyl)nortropanes: candidate radioligands for in vivo imaging of the brain dopamine transporter with positron emission tomography” (J Med Chem, 2010).
